# According to ChEMBL document CHEMBL1201861, “Genomics of Drug Sensitity in Cancer screening data, Wellcome Trust Sanger Institute”:
# What was measured:
# Experiment in all cases: cells
# [1] = test system: MIA PaCa-2; format: functional, cell-based; conditions: Homo sapiens;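 note: growth inhibition of MIA PaCa-2 cells, read out with a cell viability assay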
# Description: SANGER: Inhibition of human MIA-PaCa-2 cell growth in a cell viability assay.
# [2] = test system: DBTRG-05MG; format: functional, cell-based; conditions: Homo sapiens;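 note: cell viability assay measuring growth inhibition of human DBTRG-05MG cells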
# Description: SANGER: Inhibition of human DBTRG-05MG cell growth in a cell viability assay.
# [3] = test system: OVCAR-5; format: functional, cell-based; conditions: Homo sapiens;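 note: growth inhibition of human OVCAR-5 cells, read out with a cell viability assay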
# Description: SANGER: Inhibition of human OVCAR-5 cell growth in a cell viability assay.
# [4] = test system: NCI-H520; format: functional, cell-based; conditions: Homo sapiens;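 note: growth inhibition of NCI-H520 cells, measured by a cell viability assay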
# Description: SANGER: Inhibition of human NCI-H520 cell growth in a cell viability assay.
# [5] = test system: BFTC-909; format: functional, cell-based; conditions: Homo sapiens
# Description: SANGER: Inhibition of human BFTC-909 cell growth in a cell viability assay.
# [6] = test system: DK-MG; format: functional, cell-based; conditions: Homo sapiens;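 note: growth inhibition of DK-MG cells, read out with a cell viability assay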
# Description: SANGER: Inhibition of human DK-MG cell growth in a cell viability assay.
# [7] = test system: NCI-H1563; format: functional, cell-based; conditions: Homo sapiens;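 note: growth inhibition of human NCI-H1563 cells, read out with a cell viability assay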
# Description: SANGER: Inhibition of human NCI-H1563 cell growth in a cell viability assay.
# [8] = test system: PANC-03-27; format: functional, cell-based; conditions: Homo sapiens
# Description: SANGER: Inhibition of human PANC-03-27 cell growth in a cell viability assay.
# [9] = test system: MFH-ino; format: functional, cell-based, Homo sapiens; conditions: Homo sapiens, MFH-ino;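 note: growth inhibition of human MFH-ino cells, read out by a cell viability assay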
# Description: SANGER: Inhibition of human MFH-ino cell growth in a cell viability assay.
# [10] = test system: HCT-15; format: functional, cell-based; conditions: Homo sapiens;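 note: cell viability readout, IC50 reflecting suppression of HCT-15 cell growth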
# Description: SANGER: Inhibition of human HCT-15 cell growth in a cell viability assay.
# [11] = test system: NCI-H719; format: functional, cell-based, Homo sapiens; conditions: Homo sapiens, NCI-H719;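 note: growth inhibition of the cultured cell line, read out with a viability assay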
# Description: SANGER: Inhibition of human NCI-H719 cell growth in a cell viability assay.
# [12] = test system: OAW-42; format: functional, cell-based; conditions: Homo sapiens;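 note: growth inhibition of OAW-42 cells, read out with a cell viability assay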
# Description: SANGER: Inhibition of human OAW-42 cell growth in a cell viability assay.
# [13] = test system: CAL-62; format: functional, cell-based; conditions: Homo sapiens;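 note: growth inhibition of CAL-62 cells, read out with a cell viability assay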
# Description: SANGER: Inhibition of human CAL-62 cell growth in a cell viability assay.
# [14] = test system: NCI-H1993; format: functional, cell-based; conditions: Homo sapiens;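 note: growth inhibition of the cancer cell line, assessed with a cell viability assay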
# Description: SANGER: Inhibition of human NCI-H1993 cell growth in a cell viability assay.
# [15] = test system: C32; format: functional, cell-based; conditions: Homo sapiens;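 note: cell viability assay, with IC50 reflecting inhibition of C32 cell growth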
# Description: SANGER: Inhibition of human C32 cell growth in a cell viability assay.
# [16] = test system: U-251; format: functional, cell-based; conditions: Homo sapiens;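 note: growth inhibition of human U-251 cells, read out through a cell viability assay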
# Description: SANGER: Inhibition of human U251 cell growth in a cell viability assay.
# [17] = test system: PA-1; format: functional, cell-based; conditions: Homo sapiens;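 note: IC50 for suppression of PA-1 cell proliferation, determined with a cell viability read-out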
# Description: SANGER: Inhibition of human PA-1 cell growth in a cell viability assay.
# [18] = test system: BT-20; format: functional, cell-based; conditions: Homo sapiens;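 note: cell viability assay measuring suppression of growth in human BT-20 cells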
# Description: SANGER: Inhibition of human BT-20 cell growth in a cell viability assay.
# [19] = test system: SNU-16; format: functional, cell-based, Homo sapiens; conditions: Homo sapiens, SNU-16;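 note: growth inhibition of human SNU-16 cells, determined with a cell viability readout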
# Description: SANGER: Inhibition of human NCI-SNU-16 cell growth in a cell viability assay.
# [20] = test system: Detroit 562; format: functional, cell-based; conditions: Homo sapiens;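 note: growth inhibition of human Detroit 562 cells, read out by a cell viability assay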
# Description: SANGER: Inhibition of human Detroit562 cell growth in a cell viability assay.
# [21] = test system: SK-LU-1; format: functional, cell-based; conditions: Homo sapiens;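 note: cell viability assay measuring growth inhibition of human SK-LU-1 cells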
# Description: SANGER: Inhibition of human SK-LU-1 cell growth in a cell viability assay.
# [22] = test system: SK-MES-1; format: functional, cell-based; conditions: Homo sapiens;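 note: growth inhibition of human SK-MES-1 cells, read out with a cell viability assay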
# Description: SANGER: Inhibition of human SK-MES-1 cell growth in a cell viability assay.
# [23] = test system: RMG-I; format: functional, cell-based; conditions: Homo sapiens;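 note: growth inhibition of human RMG-I cells, read out with a cell viability assay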
# Description: SANGER: Inhibition of human RMG-I cell growth in a cell viability assay.
# [24] = test system: ME-180; format: functional, cell-based; conditions: Homo sapiens;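 note: cell viability assay measuring growth inhibition of ME-180 cells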
# Description: SANGER: Inhibition of human ME-180 cell growth in a cell viability assay.
# [25] = test system: HT-1080; format: functional, cell-based; conditions: Homo sapiens
# Description: SANGER: Inhibition of human HT-1080 cell growth in a cell viability assay.
# [26] = test system: SNU-C1; format: functional, cell-based, Homo sapiens; conditions: Homo sapiens, SNU-C1;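 note: growth inhibition of SNU-C1 human cells, read out by a cell viability assay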
# Description: SANGER: Inhibition of human SNU-C1 cell growth in a cell viability assay.
# [27] = test system: NCI-H345; format: functional, cell-based, Homo sapiens; conditions: Homo sapiens, NCI-H345;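 note: growth inhibition of NCI-H345 cells measured with a cell viability assay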
# Description: SANGER: Inhibition of human NCI-H345 cell growth in a cell viability assay.
# [28] = test system: LP-1; format: functional, cell-based, Homo sapiens; conditions: Homo sapiens, LP-1;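 note: growth inhibition of human LP-1 cells, with the read-out taken from a cell viability assay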
# Description: SANGER: Inhibition of human LP-1 cell growth in a cell viability assay.
# [29] = test system: Panc1005; format: functional, cell-based; conditions: Homo sapiens;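 note: growth inhibition of human PANC-10-05 cells, measured by a cell viability assay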
# Description: SANGER: Inhibition of human PANC-10-05 cell growth in a cell viability assay.
# [30] = test system: NCI-H2228; format: functional, cell-based; conditions: Homo sapiens;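 note: growth inhibition of human NCI-H2228 cells, read out by a cell viability assay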
# Description: SANGER: Inhibition of human NCI-H2228 cell growth in a cell viability assay.
# [31] = test system: ARH-77; format: functional, cell-based, Homo sapiens; conditions: Homo sapiens, ARH-77;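 note: growth inhibition of ARH-77 cells, read out by a cell viability assay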
# Description: SANGER: Inhibition of human ARH-77 cell growth in a cell viability assay.
# [32] = test system: Raji; format: functional, cell-based, Homo sapiens; conditions: Homo sapiens, Raji;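 note: cell viability assay measuring inhibition of Raji cell growth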
# Description: SANGER: Inhibition of human Raji cell growth in a cell viability assay.
# [33] = test system: SW1573; format: functional, cell-based; conditions: Homo sapiens;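 note: growth inhibition of SW1573 cells, read out with a cell viability assay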
# Description: SANGER: Inhibition of human SW1573 cell growth in a cell viability assay.
# [34] = test system: IST-SL2; format: functional, cell-based, Homo sapiens; conditions: Homo sapiens, IST-SL2;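 note: growth inhibition of human IST-SL2 cells, read out by a cell viability assay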
# Description: SANGER: Inhibition of human IST-SL2 cell growth in a cell viability assay.
# [35] = test system: CMK; format: functional, cell-based, Homo sapiens; conditions: Homo sapiens, CMK;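 note: growth inhibition of CMK cells, read out as cell viability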
# Description: SANGER: Inhibition of human CMK cell growth in a cell viability assay.
# [36] = test system: CAL-12T; format: functional, cell-based; conditions: Homo sapiens;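 note: growth inhibition of human CAL-12T cells, read out with a cell viability assay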
# Description: SANGER: Inhibition of human CAL-12T cell growth in a cell viability assay.
# [37] = test system: MCF7; format: functional, cell-based; conditions: Homo sapiens;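 note: growth inhibition of human MCF7 cells, read out with a cell viability assay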
# Description: SANGER: Inhibition of human MCF7 cell growth in a cell viability assay.
# [38] = test system: HT-1376; format: functional, cell-based; conditions: Homo sapiens
# Description: SANGER: Inhibition of human HT-1376 cell growth in a cell viability assay.
# [39] = test system: KARPAS-422; format: functional, cell-based, Homo sapiens; conditions: Homo sapiens, KARPAS-422
# Description: SANGER: Inhibition of human KARPAS-422 cell growth in a cell viability assay.
# [40] = test system: HCC1954; format: functional, cell-based; conditions: Homo sapiens;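 note: growth inhibition of human HCC1954 cells, read out with a cell viability assay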
# Description: SANGER: Inhibition of human HCC1954 cell growth in a cell viability assay.
# [41] = test system: L-540; format: functional, cell-based, Homo sapiens; conditions: Homo sapiens, L-540;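 note: growth inhibition of the human L-540 cell line, read out with a viability assay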
# Description: SANGER: Inhibition of human L-540 cell growth in a cell viability assay.
# [42] = test system: KYSE-450; format: functional, cell-based; conditions: Homo sapiens;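 note: cell growth inhibition measured by a viability assay in human KYSE-450 cells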
# Description: SANGER: Inhibition of human KYSE-450 cell growth in a cell viability assay.
# [43] = test system: SW1783; format: functional, cell-based; conditions: Homo sapiens;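 note: cell growth inhibition measured with a viability assay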
# Description: SANGER: Inhibition of human SW1783 cell growth in a cell viability assay.
# [44] = test system: DMS-153; format: functional, cell-based, Homo sapiens; conditions: Homo sapiens, DMS-153
# Description: SANGER: Inhibition of human DMS-153 cell growth in a cell viability assay.
# [45] = test system: UACC-812; format: functional, cell-based; conditions: Homo sapiens
# Description: SANGER: Inhibition of human UACC-812 cell growth in a cell viability assay.
# [46] = test system: MKN-28; format: functional, cell-based; conditions: Homo sapiens;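 note: cell viability assay read-out, IC50 reflects suppression of growth of human MKN-28 cells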
# Description: SANGER: Inhibition of human MKN28 cell growth in a cell viability assay.
# [47] = test system: MONO-MAC-6; format: functional, cell-based, Homo sapiens; conditions: Homo sapiens, MONO-MAC-6;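 note: cell viability assay measuring growth inhibition of human MONO-MAC-6 cells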
# Description: SANGER: Inhibition of human MONO-MAC-6 cell growth in a cell viability assay.
# [48] = test system: NCI-H2009; format: functional, cell-based; conditions: Homo sapiens;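 note: cell viability assay measuring inhibition of NCI-H2009 cell growth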
# Description: SANGER: Inhibition of human NCI-H2009 cell growth in a cell viability assay.
# [49] = test system: KMOE-2; format: functional, cell-based, Homo sapiens; conditions: Homo sapiens, KMOE-2;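 note: growth inhibition of human KMOE-2 cells, read out with a cell viability assay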
# Description: SANGER: Inhibition of human KMOE-2 cell growth in a cell viability assay.
# [50] = test system: 5637; format: functional, cell-based; conditions: Homo sapiens
# Description: SANGER: Inhibition of human 5637 cell growth in a cell viability assay.
# [51] = test system: NCI-H460; format: functional, cell-based; conditions: Homo sapiens;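 note: cell viability assay scoring growth inhibition of human NCI-H460 cells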
# Description: SANGER: Inhibition of human NCI-H460 cell growth in a cell viability assay.
# [52] = test system: NCI-H1793; format: functional, cell-based; conditions: Homo sapiens;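 note: cell growth inhibition, read out by a cell viability assay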
# Description: SANGER: Inhibition of human NCI-H1793 cell growth in a cell viability assay.
# [53] = test system: NCI-H187; format: functional, cell-based, Homo sapiens; conditions: Homo sapiens, NCI-H187;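 note: growth inhibition of NCI-H187 cells, read out as cell viability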
# Description: SANGER: Inhibition of human NCI-H187 cell growth in a cell viability assay.
# [54] = test system: SK-MM-2; format: functional, cell-based, Homo sapiens; conditions: Homo sapiens, SK-MM-2;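 note: growth inhibition of human SK-MM-2 cells, read out with a cell viability assay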
# Description: SANGER: Inhibition of human SK-MM-2 cell growth in a cell viability assay.
# [55] = test system: SW-620; format: functional, cell-based; conditions: Homo sapiens;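 note: growth inhibition of human SW-620 cells, measured by a cell viability assay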
# Description: SANGER: Inhibition of human SW620 cell growth in a cell viability assay.
# [56] = test system: KYSE-180; format: functional, cell-based; conditions: Homo sapiens;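 note: growth inhibition of KYSE-180 cells, read out with a cell viability assay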
# Description: SANGER: Inhibition of human KYSE-180 cell growth in a cell viability assay.
# [57] = test system: VMRC-RCZ; format: functional, cell-based; conditions: Homo sapiens;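 note: growth inhibition measured with a cell viability assay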
# Description: SANGER: Inhibition of human VMRC-RCZ cell growth in a cell viability assay.
compound,measurement,setting,value
CCCCCCCCCCCC1=C(O)C(=O)C=C(O)C1=O [EMBELIN],IC50,[1],4700 nM
same,IC50,[2],15.4 µM
same,IC50,[3],> 32000 nM
same,IC50,[4],13.2 µM
same,IC50,[5],> 32000 nM
same,IC50,[6],> 32 µM
same,IC50,[7],> 32 µM
same,IC50,[8],> 32000 nM
same,IC50,[9],5580 nM
same,IC50,[10],9.25 µM
same,IC50,[11],> 32 µM
same,IC50,[12],> 32000 nM
same,IC50,[13],23.3 µM
same,IC50,[14],> 32 µM
same,IC50,[15],2830 nM
same,IC50,[16],9.69 µM
same,IC50,[17],2320 nM
same,IC50,[18],14.5 µM
same,IC50,[19],> 32000 nM
same,IC50,[20],11.5 µM
same,IC50,[21],7.21 µM
same,IC50,[22],5010 nM
same,IC50,[23],9.24 µM
same,IC50,[24],30.6 µM
same,IC50,[25],4760 nM
same,IC50,[26],10.3 µM
same,IC50,[27],> 32 µM
same,IC50,[28],> 32 µM
same,IC50,[29],> 32000 nM
same,IC50,[30],> 32000 nM
same,IC50,[31],16.4 µM
same,IC50,[32],10.5 µM
same,IC50,[33],> 32000 nM
same,IC50,[34],> 32000 nM
same,IC50,[35],10.7 µM
same,IC50,[36],9.73 µM
same,IC50,[37],8.35 µM
same,IC50,[38],5900 nM
same,IC50,[39],20.7 µM
same,IC50,[40],11.3 µM
same,IC50,[41],8.42 µM
same,IC50,[42],17.7 µM
same,IC50,[43],10.1 µM
same,IC50,[44],> 32000 nM
same,IC50,[45],> 32 µM
same,IC50,[46],10 µM
same,IC50,[47],21.8 µM
same,IC50,[48],11.9 µM
same,IC50,[49],24.3 µM
same,IC50,[50],13.2 µM
same,IC50,[51],6.09 µM
same,IC50,[52],> 32000 nM
same,IC50,[53],> 32 µM
same,IC50,[54],> 32000 nM
same,IC50,[55],28.8 µM
same,IC50,[56],7.58 µM
same,IC50,[57],9.47 µM
C/C(=C\c1csc(C)n1)[C@@H]1C[C@@H]2O[C@]2(C)CCC[C@H](C)[C@H](O)[C@@H](C)C(=O)C(C)(C)[C@@H](O)CC(=O)O1 [PATUPILONE],IC50,[1],1.31 nM
same,IC50,[2],0.00586 µM
same,IC50,[3],2.84 nM
same,IC50,[4],0.00295 µM
same,IC50,[5],1.56 nM
same,IC50,[6],> 0.032 µM
same,IC50,[7],> 0.032 µM
same,IC50,[8],0.132 nM
same,IC50,[9],0.885 nM
same,IC50,[10],0.000717 µM
same,IC50,[11],> 0.032 µM
same,IC50,[12],2.18 nM
same,IC50,[13],0.000875 µM
same,IC50,[14],> 0.032 µM
same,IC50,[15],> 32 nM
same,IC50,[16],0.0108 µM
same,IC50,[17],0.174 nM
same,IC50,[18],0.0051 µM
same,IC50,[19],31 nM
same,IC50,[20],0.0014 µM
same,IC50,[21],0.000866 µM
same,IC50,[22],1.24 nM
same,IC50,[23],> 0.032 µM
same,IC50,[24],0.00574 µM
same,IC50,[25],0.842 nM
same,IC50,[26],> 0.032 µM
same,IC50,[27],> 0.032 µM
same,IC50,[28],> 0.032 µM
same,IC50,[29],1.12 nM
same,IC50,[30],0.473 nM
same,IC50,[31],0.00613 µM
same,IC50,[32],> 0.032 µM
same,IC50,[33],14.6 nM
same,IC50,[34],7.03 nM
same,IC50,[35],0.00133 µM
same,IC50,[36],0.000239 µM
same,IC50,[37],8.66e-05 µM
same,IC50,[38],21.2 nM
same,IC50,[39],0.0106 µM
same,IC50,[40],0.00919 µM
same,IC50,[41],0.0107 µM
same,IC50,[42],0.000267 µM
same,IC50,[43],0.00148 µM
same,IC50,[44],29.3 nM
same,IC50,[45],> 0.032 µM
same,IC50,[46],0.000462 µM
same,IC50,[47],0.0174 µM
same,IC50,[48],0.000862 µM
same,IC50,[49],> 0.032 µM
same,IC50,[50],0.000638 µM
same,IC50,[51],0.000333 µM
same,IC50,[52],21 nM
same,IC50,[53],> 0.032 µM
same,IC50,[54],17.3 nM
same,IC50,[55],0.000648 µM
same,IC50,[56],0.000601 µM
same,IC50,[57],0.000136 µM
